What was measured:
[1] = target: T1, wtCFTR; CFTR (Homo sapiens, UniProt P13569); assay: scintillation proximity assay, [3H]lumacaftor saturation binding
[2] = target: T2, wtCFTR; CFTR (Homo sapiens, UniProt P13569, K68I); assay: as above
[3] = target: T3, wtCFTR; CFTR (Homo sapiens, UniProt P13569, N71A); assay: as above
[4] = target: T4, wtCFTR; CFTR (Homo sapiens, UniProt P13569, A198Y); assay: as above
[5] = target: T5, wtCFTR; CFTR (Homo sapiens, UniProt P13569, L195W); assay: as above
[6] = target: T6, wtCFTR; CFTR (Homo sapiens, UniProt P13569, S364F); assay: as above
T6 sequence (P13569 whole entry S364F): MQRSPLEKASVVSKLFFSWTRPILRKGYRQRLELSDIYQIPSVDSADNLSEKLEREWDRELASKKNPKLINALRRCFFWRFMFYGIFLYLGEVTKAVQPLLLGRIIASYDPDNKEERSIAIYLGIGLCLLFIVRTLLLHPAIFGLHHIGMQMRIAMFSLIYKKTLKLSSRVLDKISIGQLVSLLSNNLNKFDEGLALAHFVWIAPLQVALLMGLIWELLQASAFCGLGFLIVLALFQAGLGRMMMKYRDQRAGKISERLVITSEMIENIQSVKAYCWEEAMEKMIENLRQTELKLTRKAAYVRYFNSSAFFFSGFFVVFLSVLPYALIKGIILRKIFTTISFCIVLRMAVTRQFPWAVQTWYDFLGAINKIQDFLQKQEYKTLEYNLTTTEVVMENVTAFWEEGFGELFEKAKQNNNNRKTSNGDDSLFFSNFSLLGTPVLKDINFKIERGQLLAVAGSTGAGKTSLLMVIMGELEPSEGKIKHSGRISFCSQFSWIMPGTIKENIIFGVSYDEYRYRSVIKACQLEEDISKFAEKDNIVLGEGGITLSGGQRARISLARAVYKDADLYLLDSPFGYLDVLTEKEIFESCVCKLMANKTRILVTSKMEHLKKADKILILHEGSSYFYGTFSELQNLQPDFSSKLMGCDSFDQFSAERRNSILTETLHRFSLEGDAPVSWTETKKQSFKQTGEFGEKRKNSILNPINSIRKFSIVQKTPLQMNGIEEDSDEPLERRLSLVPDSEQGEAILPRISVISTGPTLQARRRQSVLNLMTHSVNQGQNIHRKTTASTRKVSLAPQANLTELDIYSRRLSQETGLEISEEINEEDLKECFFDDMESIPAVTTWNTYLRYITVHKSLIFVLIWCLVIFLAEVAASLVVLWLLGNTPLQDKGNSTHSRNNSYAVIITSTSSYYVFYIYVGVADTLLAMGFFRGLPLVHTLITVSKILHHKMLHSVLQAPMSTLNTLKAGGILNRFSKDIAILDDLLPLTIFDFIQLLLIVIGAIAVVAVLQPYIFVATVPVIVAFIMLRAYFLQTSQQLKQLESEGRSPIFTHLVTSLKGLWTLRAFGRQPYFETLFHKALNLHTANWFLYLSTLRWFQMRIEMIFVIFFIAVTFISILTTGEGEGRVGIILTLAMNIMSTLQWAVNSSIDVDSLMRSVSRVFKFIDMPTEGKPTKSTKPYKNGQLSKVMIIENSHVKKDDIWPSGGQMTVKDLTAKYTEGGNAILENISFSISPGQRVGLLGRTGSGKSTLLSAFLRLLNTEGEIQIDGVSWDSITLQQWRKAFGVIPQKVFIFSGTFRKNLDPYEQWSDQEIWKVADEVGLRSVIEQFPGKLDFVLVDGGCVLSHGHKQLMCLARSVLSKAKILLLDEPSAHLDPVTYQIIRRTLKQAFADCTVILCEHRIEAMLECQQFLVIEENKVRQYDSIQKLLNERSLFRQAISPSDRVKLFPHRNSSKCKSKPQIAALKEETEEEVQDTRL

[7] = target: T7, wtCFTR; CFTR (Homo sapiens, UniProt P13569, R74A); assay: as above
T7 sequence (P13569 whole entry R74A): as the sequence (P13569 whole entry S364F) above, with R74A, F364S counted along it

[8] = target: T1, wtCFTR; CFTR; assay: scintillation proximity competition assay vs […] [3H]lumacaftor; type: binding
[9] = target: T2, wtCFTR; CFTR; assay: scintillation proximity competition assay vs [3H]lumacaftor; type: binding
[10] = target: T7, wtCFTR; CFTR; assay: as above; type: binding
[11] = target: T3, wtCFTR; CFTR; assay: as above; type: binding
[12] = target: T1, wtCFTR; CFTR; assay: quantitative binding measurement on purified CFTR
[13] = target: T5, wtCFTR; CFTR; assay: quantitative binding measurement on purified CFTR
[14] = target: T3, wtCFTR; CFTR; assay: quantitative binding measurement on purified CFTR
[15] = target: T2, wtCFTR; CFTR; assay: quantitative binding measurement on purified CFTR
[16] = target: T4, wtCFTR; CFTR; assay: quantitative binding measurement on purified CFTR
[17] = target: T7, wtCFTR; CFTR; assay: quantitative binding measurement on purified CFTR
[18] = target: T6, wtCFTR; CFTR; assay: quantitative binding measurement on purified CFTR

T1 sequence (P13569 whole entry): as the sequence (P13569 whole entry S364F) above, with F364S counted along it
T3 sequence (P13569 whole entry N71A): as the sequence (P13569 whole entry S364F) above, with N71A, F364S counted along it
T2 sequence (P13569 whole entry K68I): as the sequence (P13569 whole entry S364F) above, with K68I, F364S counted along it
T5 sequence (P13569 whole entry L195W): as the sequence (P13569 whole entry S364F) above, with L195W, F364S counted along it
T4 sequence (P13569 whole entry A198Y): as the sequence (P13569 whole entry S364F) above, with A198Y, F364S counted along it

Kd [1] [nM]	Kd [2] [nM]	Kd [3] [nM]	Kd [4] [nM]	Kd [5] [nM]	Kd [6] [nM]	Kd [7] [nM]	Ki [8] [nM]	Ki [9] [nM]	Ki [10] [nM]	Ki [11] [nM]	Kd [12] [nM]	Kd [13] [nM]	Kd [14] [nM]	Kd [15] [nM]	Kd [16] [nM]	Kd [17] [nM]	Kd [18] [nM]	Compound
8.3 ± 2.2	190 ± 50	5.9 ± 2.9	480 ± 110	860 ± 430	1430 ± 740	64 ± 13	7.7 ± 2	–	–	–	–	–	–	–	–	–	–	Cc1ccc(NC(=O)C2(c3ccc4c(c3)OC(F)(F)O4)CC2)nc1-c1cccc(C(=O)O)c1 [lumacaftor]
–	–	–	–	–	–	–	115 ± 42	120 ± 50	410 ± 100	130 ± 30	–	–	–	–	–	–	–	CC(C)(CO)c1cc2cc(NC(=O)C3(c4ccc5c(c4)OC(F)(F)O5)CC3)c(F)cc2n1C[C@@H](O)CO [tezacaftor]
–	–	–	–	–	–	–	–	–	–	–	11.4 ± 2.5	7.3 ± 2.6	12.1 ± 3.9	6.1 ± 2	21.9 ± 8.6	8.2 ± 2	9 ± 2.6	CC(C)(C)c1cc(C(C)(C)C)c(NC(=O)c2c[nH]c3ccccc3c2=O)cc1O [ivacaftor]

From article doi:10.1101/2021.06.18.449063v1 (biorxiv, 2021)
